Columns and labels:
Format in all cases: cell-based
[1] = tested on: T47D (PI3Kα H1047R mutant) cells; test: Inhibition of pAKT formation, alphaLISA SureFire Ultra AKT 1/2/3 (pS473), T47D cells; conditions: Homo sapiens, T47D, T47D (PI3Kα H1047R mutant) cells; inhibition of pAKT (pS473) formation; approximately one hour or 24 hours treatment; read-out: T47D pAKT (H1047R mutant) IC50
How it was run: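 T47D cells (12,000/well) in HBSS were dosed with compound at 10 concentrations (10.4 μM top, 1:4 dilutions) for about 1 h or 24 h at 37 °C, then lysed. pS473 AKT was read by alphaLISA. Signals were normalized to alpelisib and DMSO controls, and IC50 came from a four-parameter fit.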

[2] = tested on: MKN1 (PI3Kα E545K mutant) cells; test: Inhibition of pAKT formation, alphaLISA SureFire Ultra AKT 1/2/3 (pS473), MKN1 cells; conditions: Homo sapiens, MKN-1; MKN1 (PI3Kα E545K mutant) cells; inhibition of pAKT (pS473) formation; approximately one hour or 24 hours treatment; read-out: MKN1 (E545K) pAKT IC50
Method: (§1) The ability of a compound of Formula (I) to inhibit the formation of pAKT was measured using alphaLISA Surefire Ultra AKT 1/2/3 (pS473) Assay Kit (#ALSU-PAKT-B50K) was obtained from Perkin Elmer (Waltham, MA).
(§2) To prepare assay plates for pAKT alphaLISA assays, cells were trypsinized, resuspended in fresh media, and viable cells were counted utilizing trypan blue exclusion. Prior to seeding, cells were washed with PBS and resuspended in HBSS (Gibco, #14025092). T47D (12,000/w), SKBR3(12,000/w), or MKN1(24,000/w) cells were seeded at 12 μl per well in a solid white flat bottom 384 cell culture plate (Perkin Elmer #6007680).
(§3) Immediately after seeding, cells were dosed using an Echo Liquid Handler (Beckman Coulter) with compounds at a […] starting concentration and serially diluted (1:4) for a total of 10 concentrations. […] Cells were incubated with the compounds (solubilized in DMSO) for approximately one hour or 24 hours at 37° C. After one hour (or 24 hours) of treatment, cells were lysed with 3 μl of the 5× lysis buffer (provided and incubated at room temperature for 15 min on a microtiter plate shaker). Once cells were sufficiently lysed, 7.5 μl of the acceptor bead mix (made using the manufacturers recommended dilutions) was added to each well and left on the microtiter plate shaker for 1 min prior to incubating plates at room temperature for one hour, in the absence of light. After one hour of incubation with the acceptor bead mix, 7.5 μl of the donor bead mix (made using the manufacturers recommended dilutions) was added to each well and left on the microtiter plate shaker for 1 min prior to incubating plates at room temperature overnight in the absence of light. Plates were then imaged the following day using a CLARIOstar microplate reader (BMG Labtech, Germany).
(§4) Percent of control values were calculated by subtracting the average signal from the positive control (alpelisib) treated wells from all treated wells (including DMSO control wells) and then divided by the average signal from the vehicle DMSO treated control wells. Percent of vehicle control values were plotted as log (inhibitor) vs. response-Variable slope (four parameters) for curve fitting and IC50 values were determined using XLfit.
(§5) Key: N.D. =not determined

[3] = tested on: SKBR3 (PI3Kα wild type) cells; test: Inhibition of pAKT formation, alphaLISA SureFire Ultra AKT 1/2/3 (pS473), SKBR3 cells; conditions: Homo sapiens, SK-BR-3; Inhibition of pAKT in SKBR3 (PI3Kα wild type) cells; read-out: SKBR3 (WT) pAKT IC50 (nM) (H1047R mutant) IC50
Method: as §1, §2, §3, §4, §5

[4] = tested on: T47D (PI3Kα H1047R mutant) cells; test: CellTiter-Glo 2.0 luminescent cell viability assay, 72 hours, T47D cells; conditions: Homo sapiens, T47D, 72 h, T47D (PI3Kα H1047R mutant) cells, CellTiter-Glo, approximately 72 hours; read-out: T47D (H1047R mutant) Viability IC50
How it was run: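 Cells seeded at 1000 per well overnight were dosed with a 10-concentration, 1:4 series starting at 10 µM and incubated ~72 h at 37° C. Viability was read by CellTiter-Glo 2.0 luminescence after 30 min at room temperature. IC50 came from four-parameter fits of percent vehicle control.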

[5] = tested on: MKN1 (PI3Kα E545K mutant) cells; test: CellTiter-Glo 2.0 luminescent cell viability assay, 72 hours, MKN1 cells; conditions: Homo sapiens, MKN-1; MKN1 (PI3Kα E545K mutant) cells, CellTiter-Glo, approximately 72 hours; read-out: MKN1 (E545K) Viability IC50
Method: This Example illustrates that exemplary compounds of the present invention decrease the viability of cells.
The ability of a compound of Formula (I) to decrease the viability of cells was measured using CellTiter-Glo 2.0 (CTG) Luminescent Cell Viability Assay (#G9241) obtained from Promega (Madison, WI).
To prepare assay plates for viability assays, cells were trypsinized, resuspended in fresh media, and viable cells were counted utilizing trypan blue exclusion. T47D, SKBR3, or MKN1 cells were seeded at 1000 cells in 30 μl per well in a solid white flat bottom 384 cell culture plate (Perkin Elmer #6007680) and incubated at 37° C. overnight.
Assay day 1, cells were dosed using an Echo Liquid Handler (Beckman Coulter) with compounds at a 10 um starting concentration and serially diluted (1:4) for a total of 10 concentrations. Cells were incubated for approximately 72 hours with the compounds (solubilized in DMSO) at 37° C. After 72 hours of treatment, cell plates were equilibrated to room temperature before adding 15 μl of CTG to each well, plates were then covered in aluminum foil to protect from light, incubated at room temperature for 30 minutes on a microtiter plate shaker, and luminescence readings were collected using a CLARIOstar microplate reader (BMG Labtech, Germany). Percent of vehicle control values were plotted as log (inhibitor) vs. response-Variable slope (four parameters) for curve fitting and IC50 values were determined using XLfit.

[6] = tested on: SKBR3 (PI3Kα wild type) cells; test: CellTiter-Glo 2.0 luminescent cell viability assay, 72 hours, SKBR3 cells; conditions: Homo sapiens, SK-BR-3, 72 h, SKBR3 (PI3Kα wild type) cells, CellTiter-Glo, approximately 72 hours; read-out: SKBR3 (WT) Viability IC50
How it was run: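 Viability measured via CTG luminescence following roughly 72 hours of compound exposure at 37° C. Dosing used a 10 um starting concentration diluted 1:4 over 10 points; percent-of-vehicle data fitted with a variable-slope four-parameter model for IC50.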

Structure (SMILES)	IC50 [1]	IC50 [2]	IC50 [3]	IC50 [4]	IC50 [5]	IC50 [6]
Cc1cc([C@@H](C)Nc2ccccc2C(=O)O)c2nc(N3CCCCC3)cc(=O)n2c1 (single isomer, unassigned) [Example 3-1]	0.0149 µM	2.5 µM	> 10000 nM	1.27 µM	> 10 µM	> 10 µM
Cc1cc([C@H](C)Nc2ccccc2C(=O)O)c2nc(N3CCCCC3)cc(=O)n2c1 (single isomer, unassigned) [Example 3-2]	1.91 µM	0.755 µM	> 10000 nM	> 10 µM	> 10 µM	> 10 µM
Cc1cc([C@@H](C)Nc2ccccc2C(=O)O)c2nc(N3CCC(C)(C)CC3)c(C)c(=O)n2c1 (single isomer, unassigned) [Example 5-1]	0.03 µM	1.39 µM	1820 nM	0.461 µM	> 10 µM	> 10 µM
Cc1cc([C@H](C)Nc2ccccc2C(=O)O)c2nc(N3CCC(C)(C)CC3)c(C)c(=O)n2c1 (single isomer, unassigned) [Example 5-2]	> 10 µM	> 10 µM	> 10000 nM	9.03 µM	–	> 10 µM
Cc1cc([C@H](C)Nc2ccccc2C(=O)O)c2nc(N3CCC(C)(C)CC3)cc(=O)n2c1 (single isomer, unassigned) [Example 5-4]	0.0135 µM	1.95 µM	7070 nM	0.98 µM	> 10 µM	> 10 µM
Cc1cc([C@@H](C)Nc2ccccc2C(=O)O)c2nc(N3CCC(C)(C)CC3)cc(=O)n2c1 (single isomer, unassigned) [Example 5-5]	1.21 µM	> 10 µM	> 10000 nM	8.02 µM	> 10 µM	> 10 µM
Cc1cc([C@H](C)Nc2ccccc2C(=O)O)c2nc(N3Cc4ccccc4C3)c(C)c(=O)n2c1 (single isomer, unassigned) [Example 5-9-1]	0.0117 µM	0.271 µM	4550 nM	0.316 µM	> 10 µM	> 10 µM
Cc1cc([C@@H](C)Nc2ccccc2C(=O)O)c2nc(N3Cc4ccccc4C3)c(C)c(=O)n2c1 (single isomer, unassigned) [Example 5-9-2]	3.01 µM	> 10 µM	> 10000 nM	9.68 µM	> 10 µM	> 10 µM
Cc1cc(C(C)Nc2ccccc2C(=O)O)c2nc(C3CC3)cc(=O)n2c1 (centres unmarked) [6-2, 2-((1-(2-cyclopropyl-7-methyl-4-oxo-4H-pyrido[1,2-a]pyrimidin-9-yl)ethyl)amino)benzoic acid]	0.0932 µM	> 10 µM	> 10000 nM	> 10 µM	> 10 µM	> 10 µM
CC(Nc1ccccc1C(=O)O)c1cccn2c(=O)cc(N3Cc4ccccc4C3)nc12 (centres unmarked) [9-4, 2-((1-(2-(isoindolin-2-yl)-4-oxo-4H-pyrido[1,2-a]pyrimidin-9-yl)ethyl)amino)benzoic acid]	0.0259 µM	> 10 µM	> 10000 nM	9.97 µM	> 10 µM	> 10 µM
Cc1cc(C(C)Nc2ccccc2)c2nc(N3CCCCC3)cc(=O)n2c1 (centres unmarked) [Example 1, 7-methyl-9-(1-(phenylamino)ethyl)-2-(piperidin-1-yl)-4H-pyrido[1,2-a]pyrimidin-4-one]	> 10 µM	> 10 µM	> 10000 nM	> 10 µM	> 10 µM	> 10 µM
COc1cccc(NC(C)c2cc(C)cn3c(=O)cc(N4CCCCC4)nc23)c1C(=O)O (centres unmarked) [Example 3-3, 2-methoxy-6-((1-(7-methyl-4-oxo-2-(piperidin-1-yl)-4H-pyrido[1,2-a]pyrimidin-9-yl)ethyl)amino)benzoic acid]	2.73 µM	> 10 µM	> 10000 nM	> 10 µM	> 10 µM	> 10 µM
Cc1cc(C(C)Nc2cccc(O)c2C(=O)O)c2nc(N3CCCCC3)cc(=O)n2c1 (centres unmarked) [Example 3-4, 2-hydroxy-6-((1-(7-methyl-4-oxo-2-(piperidin-1-yl)-4H-pyrido[1,2-a]pyrimidin-9-yl)ethyl)amino)benzoic acid]	2.28 µM	8.83 µM	> 10000 nM	–	–	–
COc1ccc(NC(C)c2cc(C)cn3c(=O)cc(N4CCCCC4)nc23)c(C(=O)O)c1 (centres unmarked) [Example 3-5, 5-methoxy-2-((1-(7-methyl-4-oxo-2-(piperidin-1-yl)-4H-pyrido[1,2-a]pyrimidin-9-yl)ethyl)amino)benzoic acid]	1.8 µM	> 10 µM	> 10000 nM	> 10 µM	> 10 µM	> 10 µM
Cc1cc(C(C)Nc2ccc(O)cc2C(=O)O)c2nc(N3CCCCC3)cc(=O)n2c1 (centres unmarked) [Example 3-6, 5-hydroxy-2-((1-(7-methyl-4-oxo-2-(piperidin-1-yl)-4H-pyrido[1,2-a]pyrimidin-9-yl)ethyl)amino)benzoic acid]	> 10 µM	> 10 µM	2670 nM	> 10 µM	> 10 µM	> 10 µM
Cc1cc(C(C)Sc2ccccc2C(=O)O)c2nc(N3CCCCC3)cc(=O)n2c1 (centres unmarked) [Example 3-10, 2-((1-(7-methyl-4-oxo-2-(piperidin-1-yl)-4H-pyrido[1,2-a]pyrimidin-9-yl)ethyl)thio)benzoic acid]	2.51 µM	> 10 µM	> 10000 nM	> 10 µM	–	> 10 µM
Cc1cc(C(C)N(C)c2ccccc2C(=O)O)c2nc(N3CCCCC3)cc(=O)n2c1 (centres unmarked) [Example 3-21, 2-(methyl(1-(7-methyl-4-oxo-2-(piperidin-1-yl)-4H-pyrido[1,2-a]pyrimidin-9-yl)ethyl)amino)benzoic acid]	> 10 µM	> 10 µM	–	–	–	–
Cc1cc(C(C)Nc2ccccc2C(=O)O)c2nc(N3CCC4(CC3)CC4)cc(=O)n2c1 (centres unmarked) [Example 3-22, 2-((1-(7-methyl-4-oxo-2-(6-azaspiro[2.5]octan-6-yl)-4H-pyrido[1,2-a]pyrimidin-9-yl)ethyl)amino)benzoic acid]	0.0705 µM	3.25 µM	> 10000 nM	1.64 µM	–	0.799 µM
